Assay results as given in paper PMC6881810, “Trichoderma reesei Dehydrogenase, a Pyrroloquinoline Quinone-Dependent Member of Auxiliary Activity Family 12 of the Carbohydrate-Active Enzymes Database: Functional and Structural Characterization” (Applied and Environmental Microbiology, 2019).

Biological target: T1, TrAA12 (Trichoderma reesei, UniProt G0RPY6)
T1 construct: gene AA12
Test: cytochrome c reduction at […] nm, Michaelis-Menten nonlinear fit
Assay type: biochemical
Conditions: 50 uM cytochrome c, 4 uM PQQ, 1 mM CaCl2, 50 mM sodium acetate pH 5.5, 40 C; full cofactor occupancy assumed

T1 sequence (G0RPY6 24-430): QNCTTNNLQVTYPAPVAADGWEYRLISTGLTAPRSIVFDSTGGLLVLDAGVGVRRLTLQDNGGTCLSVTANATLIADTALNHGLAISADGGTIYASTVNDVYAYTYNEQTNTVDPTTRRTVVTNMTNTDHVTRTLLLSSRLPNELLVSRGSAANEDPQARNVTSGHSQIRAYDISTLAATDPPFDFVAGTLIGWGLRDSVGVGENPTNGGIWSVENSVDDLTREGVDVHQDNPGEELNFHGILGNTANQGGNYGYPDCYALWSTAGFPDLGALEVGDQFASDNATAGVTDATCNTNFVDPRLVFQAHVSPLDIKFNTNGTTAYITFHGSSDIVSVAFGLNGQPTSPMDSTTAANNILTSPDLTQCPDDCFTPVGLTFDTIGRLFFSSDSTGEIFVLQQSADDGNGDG

Work on `C[C@@H]1OC(O)[C@@H](O)[C@H](O)[C@@H]1O` (stereo partly drawn) [L-fucose] yielded a Km of 99.9 ± 9.7 mM.
